Assay results from US20030139331A1, “Treatment of cancer by reduction of intracellular energy and pyrimidines” (priority 2000, published 2003).
“Also recorded” adds a separate entry of the source.

Legend:
[1] = tested on: 1st passage tumor transplants of CD8F1 spontaneous breast tumors; assay: Effect of MMPR + 6-AN + PALA on tumor ATP pools in CD8F1 mice; type: in vivo; set-up: tumor ATP levels 48 hours after treatment, % of normal (saline-treated control tumors) / 6 HR % Saline Control / 24 HR % Saline Control / 48 HR % Saline Control / 72HR % Saline Control / 6 HW % Saline Control: concentration or dose not given beside the values; details: for tumor ATP levels 48 hours after treatment, % of normal (saline-treated control tumors): 48 hours after administration; for tumor ATP level, % of normal: murine breast tumors in vivo, time not stated in the sentence; for 6 HW % Saline Control: 6 hr; for 6 HR % Saline Control: tumor ATP 6 hr after i.p. injection
[2] = tested on: first passage CD8F1 advanced spontaneous breast tumors; assay: in vivo; details: for effect on tumor growth / anticancer activity (in words): advanced CD8F1 breast tumors in mice; for Regressions/Survivors: partial tumor regressions; for partial tumor regression (P.R.) rate: three pooled published experiments, MMPR, 6-AN, PALA alone and combined, P.R. = 50% or more tumor shrinkage, three courses, 1-week interval
Source text: (§1) Table 1 evaluates Saline-treated controls (Group 1), 6-AN (Group 2) and DDP (Group 3) as single agents, and in combination (Group 4), against 1st generation subcutaneous solid tumor transplants of advanced CD8F, spontaneous breast tumors. In the same experiment (i.e., same tumor transplants), is a group adding 6-AN to PALA and MMPR (MAP, Group 5), as well as a group with MAP administered prior to DDP (Group 6).
(§2) Each experiment is from a different brei (i.e., each from a different group of 3-4 spontaneous tumors) and, therefore, each transplant group contained a different number of chemotherapeutically sensitive and/or resistant tumor cells.

[3] = tested on: spontaneous, autochthonous CD8F1 breast tumors; assay: Therapy of mice bearing spontaneous, autochthonous CD8F1 breast tumors; type: in vivo
Source text: Anticancer Effect of MAP Alone in Spontaneous Murine Breast Tumors (Ref. 39)—Table 3 records that MAP produced a partial tumor regression rate of 38% in mice bearing large spontaneous, autochthonous breast tumors. There were 24 partial tumor regressions in 64 surviving mice with acceptable toxicity (4% mortality, 3 deaths in 67 treated mice). Spontaneous regression of these spontaneous breast cancers has never been observed.

in vivo = details: CD8F1, mouse, in vivo
Source text: as §1, §2

[4] = tested on: murine breast cancers, colon tumors and leukemia, and human breast cancer xenografts; assay: MAP plus anticancer agents in advanced tumor-bearing mice with a variety of tumor types; type: in vivo; details: MAP co-administered with the named anticancer agent
Protocol: Summary of Preclinical Therapeutic Results with MAP+Cancer Chemotherapy—MAP+each of nine mechanistically-different apoptosis-inducing anticancer agents was administered to advanced tumor-bearing mice with a variety of tumor types (murine breast cancers, colon tumors and leukemia, and human breast cancer xenografts).

[5] = tested on: MDA-MB 468 human breast cancer xenografts; assay: Taxotere with MAP or MAPAL in MDA-MB-468 human breast cancer xenografts; type: in vivo; details: for PR (partial tumor regression): CR included in PR rate; for (CR) complete tumor regression: included in PR rate; for % Partial Regressions: tumors averaged 100 mg at initiation, label subscript = mg/kg
Source text: Table 2 presents results one month after completing a q 2 week×3 schedule with Taxotere (TXT40 or TXT20; subscript=mg/kg), initiated in mice (10/grp) with subcutaneous advanced (100+mg) MDA-MB 468 breast cancer xenografts, are as follows: […]

[6] = tested on: patients with disseminated cancer; details: cited from earlier work
tumor ATP levels = details: cited from earlier work
mouse lymphoma cells = details: in vitro; cited from earlier work
[7] = tested on: MDA-MB 468 human breast cancer xenografts; assay: Taxotere with MAP or MAPAL in MDA-MB-468 human breast cancer xenografts; type: in vivo; details: pyruvate for 1 day on the 5th day after each ATP-depleting treatment
[8] = tested on: human soft tissue sarcoma cell lines; assay: Sensitivity of human soft tissue sarcoma cell lines to L-alanosine by MTAP status; type: cell-based; details: cells lacking MTAP activity
Source text: An examination of MTAP expression in ten human soft tissue sarcoma cell lines found MTAP not detectable in three of the ten cell lines. These three cell lines were greater than 10-fold more sensitive to L-alanosine than the cell lines containing MTAP. […] In vivo studies of L-alanosine+MMPR, as well as the addition of 6-AN, are being evaluated (82).
An examination of MTAP expression in ten human soft tissue sarcoma cell lines found MTAP not detectable in four of the ten cell lines. These four cell lines were sensitive to L-alanosine.

[9] = 69 days after initiating therapy, listed as TXT20
[10] = 69 days after initiating therapy, listed as Taxotere40
[11] = seventh series copy of Table 1, 24 hr
[12] = seventh series copy of Table 1, 48 hr
[13] = seventh series copy of Table 1, 72 hr
[14] = tumor ATP 24 hr after i.p. injection, % of saline control
[15] = tumor ATP 48 hr after i.p. injection, % of saline control
[16] = tumor ATP 72 hr after i.p. injection, % of saline control
[17] = Exp.3069F, tumors averaged 80 mg at start, three i.p. courses at 10-11 day intervals, after third course

O=C(O)C[C@H](NC(=O)CP(=O)(O)O)C(=O)O [PALA, N-(phosphonacetyl)-L-aspartic acid]
effect on tumor ATP levels (in words) ([1]; low dose PALA): had no effect on ATP levels; also recorded: does not effect ATP depletion; also recorded: devoid of an ATP depleting effect; also recorded: does not affect ATP depletion; also recorded: neither reduces tumor ATP levels nor inhibits tumor growth | effect on tumor growth / anticancer activity (in words) [2]: not antitumor active; also recorded: does not have anticancer activity

O=c1[nH]cc(F)c(=O)[nH]1 [FUra, 5-fluorouracil]
regressions of spontaneous autochthonous breast tumors, FUra alone at 75 mg/kg ([3]; 75 mg/kg): less than 5% | PR rate, FUra alone at its MTD of 100 mg/kg ([3]; 100 mg/kg): ≤ 20% | MTD (in vivo): 100 mg/kg | enhancement of anticancer agent activity by co-administered MAP (in words) [4]: significantly enhance response rates

N[C@@H](Cc1ccc(N(CCCl)CCCl)cc1)C(=O)O [PAM, phenylalanine mustard]
Partial Regressions (%) ([2]; Table 6, MAP ± PAM): did not produce tumor regressions | enhancement of anticancer agent activity by co-administered MAP (in words) [4]: significantly enhance response rates

COc1cc([C@@H]2c3cc4c(cc3[C@@H](O[C@@H]3O[C@@H]5CO[C@@H](C)O[C@H]5[C@H](O)[C@H]3O)[C@H]3COC(=O)[C@H]23)OCO4)cc(OC)c1O [etoposide]
enhancement of anticancer agent activity by co-administered MAP (in words) [4]: significantly enhance response rates

CO[C@@]12[C@H](COC(N)=O)C3=C(C(=O)C(C)=C(N)C3=O)N1C[C@@H]1N[C@@H]12 [mitomycin C]
enhancement of anticancer agent activity by co-administered MAP (in words) [4]: significantly enhance response rates

CC(=O)O[C@@]12CO[C@@H]1C[C@H](O)[C@@]1(C)C(=O)[C@H](O)C3=C(C)[C@@H](OC(=O)[C@H](O)[C@@H](NC(=O)OC(C)(C)C)c4ccccc4)C[C@@](O)([C@@H](OC(=O)c4ccccc4)[C@H]21)C3(C)C [Taxotere, taxotere]
enhancement of anticancer agent activity by co-administered MAP (in words) [4]: significantly enhance response rates | PR (partial tumor regression) [5, 9]: 0% | PR (partial tumor regression) [5, 10]: 60% | Mortality ([5]; 69 days after initiating therapy, every 2 weeks x 3, 10-11 mice per group): 0% | (CR) complete tumor regression [5, 9]: (0%) | (CR) complete tumor regression [5, 10]: (10%) | NR (no tumor regression) [5, 9]: 100% | NR (no tumor regression) [5, 10]: 40% | tumor regressions with the single agent ([5]; MDA-MB-468 tumor model described as very sensitive): 90-100% | tumor regrowth beginning, days after the third and last injection ([5]; full (MTD) dose Taxotere, Group 1): 41 days | % Tumors Progressing ([5]; treatment q 2 weeks x 3, progressing tumors larger than P.R. tumors and growing): 0% | % Partial Regressions ([5]; treatment q 2 weeks x 3): 100% | % Partial Regressions ([5]; treatment q 2 weeks x 3, listed as Taxotere40): 100%

NC(=O)c1ccc(N)nc1 [6-AN, 6-aminonicotinamide]
tumor ATP levels 48 hours after treatment, % of normal (saline-treated control tumors) [1]: 69% | tumor ATP level, % of normal [1]: 75% | tumor ATP level, % of normal ([1]; listed as 6-Aminonicotinamide): 69% | 6 HW % Saline Control ([1]; seventh series copy of Table 1): 77% | 24 HR % Saline Control [1, 11]: 75% | 48 HR % Saline Control [1, 12]: 69% | 72HR % Saline Control [1, 13]: 169% | 6 HR % Saline Control ([1]; % of saline control): 77% | 24 HR % Saline Control [1, 14]: 75% | 48 HR % Saline Control [1, 15]: 69% | 72HR % Saline Control [1, 16]: 169% | % Weight Change ([2]; Exp.3069F, after third course): +6% | Dead/Total ([2]; Exp.3069F, after third course): 3/10 | Regressions/Survivors ([2]; Exp.3069F, after third course): 0/7 | Av. Tumor W't (mg) [2, 17]: 1,765 mg | effect on tumor growth / anticancer activity (in words) [2]: tumor growth was inhibited | partial tumor regression (P.R.) rate [2]: no partial regressions | dose of 6-AN determined to be safe in early clinical trials ([6]; for up to 28 consecutive days of treatment): 0.2 mg/kg/day | clinical forms of 6-AN toxicity ([6]; three Phase I trials, daily administration): at low dose a mixed B complex vitamin deficiency, and at high dose CNS toxicity; also recorded: a low dose mixed B complex vitamin deficiency, and a high dose-dependent CNS toxicity | toxicity of in vivo schedules (tumor ATP levels; 6-AN 10 mg/kg q 3 hours x 3 on days 1,3,5 or continuous infusion): too toxic | tumor ATP levels, % of normal (tumor ATP levels; single dose of 6-AN alone at 10 mg/kg, different tumor model): 75-80%

O=P1(N(CCCl)CCCl)NCCCO1 (stereo not drawn) [cyclophosphamide]
enhancement of anticancer agent activity by co-administered MAP (in words) [4]: significantly enhance response rates

N[C@@H](CN(O)N=O)C(=O)O [L-alanosine]
cell growth, % of control (mouse lymphoma cells): 59% | intracellular tumor cell ATP pool, % of normal (control) (mouse lymphoma cells): 63%

CC(=O)C(=O)O [Pyruvate, pyruvate]
effect of pyruvate administration on treatment-induced weight loss / mortality [7]: diminishes the degree of weight loss | effect of pyruvate administration on treatment-induced weight loss / mortality ([7]; listed as pyruvate): Unacceptable mortality (e.g., 30%) is prevented

CSc1ncnc2c1ncn2[C@@H]1O[C@H](CO)[C@@H](O)[C@H]1O [MMPR, 6-methylmercaptopurine riboside]
tumor ATP levels 48 hours after treatment, % of normal (saline-treated control tumors) [1]: 34% | tumor ATP level, % of normal [1]: 34% | 6 HW % Saline Control ([1]; seventh series copy of Table 1): 47% | 24 HR % Saline Control [1, 11]: 47% | 48 HR % Saline Control [1, 12]: 34% | 72HR % Saline Control [1, 13]: 127% | 6 HR % Saline Control ([1]; % of saline control): 47% | 24 HR % Saline Control [1, 14]: 47% | 48 HR % Saline Control [1, 15]: 34% | 72HR % Saline Control [1, 16]: 127% | effect on tumor growth / anticancer activity (in words) [2]: tumor growth was inhibited | partial tumor regression (P.R.) rate [2]: no partial regressions | cell growth, % of control (mouse lymphoma cells): 25% | intracellular tumor cell ATP pool, % of normal (control) (mouse lymphoma cells): 49% | effect of adding MMPR to L-alanosine (in words) [8]: further enhanced the sensitivity of the cells lacking MTAP activity to L-alanosine

COc1cccc2c1C(=O)c1c(O)c3c(c(O)c1C2=O)C[C@@](O)(C(=O)CO)C[C@@H]3O[C@H]1C[C@H](N)[C@H](O)[C@H](C)O1 [doxorubicin]
enhancement of anticancer agent activity by co-administered MAP (in words) [4]: significantly enhance response rates

N.N.[Cl][Pt][Cl] [DDP, cisplatin]
% Weight Change ([2]; Exp.3069F, after third course): −18% | Dead/Total ([2]; Exp.3069F, after third course): 1/10 | Regressions/Survivors ([2]; Exp.3069F, after third course): 0/9 | Av. Tumor W't [2, 17]: 850 mg | effect on tumor growth / anticancer activity (in words) [2]: limited to inhibition of tumor growth | effect on tumor growth / anticancer activity (in words) ([2]; listed as cisplatin): significantly inhibited tumor growth | Regressions/Survivors (%) ([2]; pooled five experiments, MAP ± DDP, one week after third course): produced no partial (i.e., greater than 50% shrinkage of tumors), or complete response | MTD (maximum tolerated dose) of the agent alone ([2]; single agent, 10-11 day schedule, tumor-bearing CD8F1 mice): 7 mg/kg | enhancement of anticancer agent activity by co-administered MAP (in words) [4]: significantly enhance response rates

CC(=O)O[C@H]1C(=O)[C@@]2(C)[C@H]([C@H](OC(=O)c3ccccc3)[C@]3(O)C[C@H](OC(=O)[C@H](O)[C@@H](NC(=O)c4ccccc4)c4ccccc4)C(C)=C1C3(C)C)[C@]1(OC(C)=O)CO[C@@H]1C[C@@H]2O [Taxol, paclitaxel]
MTD (in vivo): 80 mg/kg | PR/survivors (%) ([2]; Table 5, MAP ± taxol): no tumor regressions | effect on tumor growth / anticancer activity (in words) [2]: statistically significant inhibition of tumor growth | enhancement of anticancer agent activity by co-administered MAP (in words) [4]: significantly enhance response rates
